Consider one molecule from EP4733303A1, “MUSCARINIC M4 RECEPTOR AGONIST AND USE THEREOF” (Haisco Pharmaceutical Group Co., Ltd., priority 2023, dated 2024).

The nature of series [1]: Pharmacokinetic test in monkeys. It counts as in vivo. Particulars: male cynomolgus monkeys. The method, then: Experimental animals: male cynomolgus monkeys, 3-5 kg, 3-6 years old, divided into an intravenous group and an intragastric group.
Experimental method: on the day of the experiment, the monkeys were randomly grouped according to their body weights. […] Table 9. Administration information
Before and after the administration, 1.0 mL of blood was taken from the limb veins and placed in an EDTAK2 centrifuge tube. Centrifugation was carried out at 5000 rpm at 4°C for 10 min, and the plasma was collected. […] Before analysis and detection, all samples were stored at -80°C, and the samples were quantitatively analysed by LC-MS/MS. Table 10. Pharmacokinetic parameters of test compound in plasma of monkeys

A short description of series [2]: Pharmacokinetic test in rats (plasma and brain). Type of series: in vivo, SD rats. The source says:
3.1 Experimental animals: male SD rats, about 220 g, 6-8 weeks old, divided into an intravenous group and an intragastric group.
3.2 Experimental design: on the day of the experiment, the SD rats were randomly grouped according to their body weights. […] Table 5. Administration information
The whole blood was centrifuged to separate the plasma; the brain tissue was rinsed with cold physiological saline to remove the residual blood on the surface, drained out and then homogenized. Before analysis and detection, all samples were stored at -80°C, and the samples were quantitatively analysed by LC-MS/MS. Table 6. Pharmacokinetic parameters of test compound in plasma of rats

The next series addresses T1, M4 receptor (Homo sapiens, UniProt P08173).
T1 construct: expressed in transfected cells; host or cells: CHO (M4-CHO cells)
T1 sequence (P08173 1-479): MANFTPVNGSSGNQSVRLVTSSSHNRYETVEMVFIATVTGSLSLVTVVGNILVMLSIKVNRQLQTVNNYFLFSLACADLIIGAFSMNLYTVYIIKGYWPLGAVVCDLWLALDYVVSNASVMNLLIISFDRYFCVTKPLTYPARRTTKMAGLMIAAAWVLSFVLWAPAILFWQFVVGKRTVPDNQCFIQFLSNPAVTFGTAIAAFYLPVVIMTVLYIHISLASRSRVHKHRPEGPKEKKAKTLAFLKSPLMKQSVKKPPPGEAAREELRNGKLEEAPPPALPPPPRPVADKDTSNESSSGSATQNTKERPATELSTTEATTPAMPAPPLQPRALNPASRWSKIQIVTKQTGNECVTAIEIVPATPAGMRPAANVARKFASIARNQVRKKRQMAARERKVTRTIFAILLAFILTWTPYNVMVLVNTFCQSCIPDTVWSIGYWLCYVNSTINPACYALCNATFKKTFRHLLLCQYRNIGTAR
Nature of the series: PAM agonistic activity of compound on M4 receptor (FLIPR Calcium 6 assay in M4-CHO cells). Particulars: with acetylcholine (Ach), final concentration 3 nM. Type of series: cell-based. In outline: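 CHO cells expressing M4, plated 16–20 h, loaded 120 min at 37 °C with Calcium 6 dye. Test compound added together with acetylcholine (3 nM final) on FLIPR Tetra; fluorescence read at 515–575 nm. EC50 from nonlinear regression of signal versus concentration.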

Series [3] can be described thus: Pharmacokinetic test in mice (plasma and brain). It counts as in vivo, C57 mice. The text has this: 2.1 Experimental animals: male C57 mice, 20-25 g, divided into an intravenous group and an intragastric group.
2.2 Experimental design: on the day of the experiment, the C57 mice were randomly grouped according to their body weights. […] Table 2. Administration information
The whole blood was centrifuged to separate the plasma; the brain tissue was rinsed with cold physiological saline to remove the residual blood on the surface, drained out and then homogenized. Before analysis and detection, all samples were stored at -80°C, and the samples were quantitatively analysed by LC-MS/MS. Table 3. Pharmacokinetic parameters of test compounds in mice

Where [4] appears, read: cynomolgus monkey, plasma, i.v. 1 mg/kg and i.g. 5 mg/kg groups, route of the parameter not given.
Where [5] appears, read: rat, male SD rats, plasma, i.v. 2.5 mg/kg and i.g. 10 mg/kg groups, route of the parameter not given.
[6] abbreviates: mouse, male C57 mice, plasma, i.v. 2.5 mg/kg and i.g. 10 mg/kg groups, route of the parameter not given.

pEC50: −log10 of the molar value.

As for `Cc1cc(=O)n(C(F)F)c2c1CN(C(=O)CC1CN(c3ccnc(OC4CC(F)(F)C4)c3)C1)C2` [Compound 128], the AUC(0-t) in series [1] (setting [4]) worked out at 5940 ng·h/mL; in series [2] (rat, plasma, po, rats, i.g. (10 mg/kg), read-out: Plasma AUC0-t) it was 46100 ng·h/mL; in series [2] (rat, male SD rats, plasma, i.v. 2.5 mg/kg and i.g. 10 mg/kg groups, route of the parameter not given, read-out: AUC0-t), 34000 ng·h/mL; in series [3] (mouse, plasma, po, mice, i.g. (10 mg/kg), read-out: Plasma AUC0-t), 9680 ng·h/mL; in series [3] (mouse, male C57 mice, plasma, i.v. 2.5 mg/kg and i.g. 10 mg/kg groups, route of the parameter not given, read-out: AUC0-t), 25700 ng·h/mL. Further, the values for the Cmax in series [1] (setting [4]), in series [2] (setting [5]) and in series [3] (setting [6]) were 495 ng/mL, 5140 ng/mL and 6030 ng/mL, respectively. Besides, the clearance in series [1] (setting [4]) was 10.1 mL/min/kg; in series [2] (setting [5]) it was 6.33 mL/min/kg; in series [3] (setting [6]), 6.91 mL/min/kg. Further, the half-life in series [1] (setting [4]) was 7.19 h; in series [2] (setting [5]) it was 4.68 h; in series [3] (setting [6]), 2.25 h. In addition, the F is recorded as 71.4% in series [1] (i.g. 5 mg/kg versus i.v. 1 mg/kg); over 98% in series [2] (male SD rats, i.g. 10 mg/kg versus i.v. 2.5 mg/kg); over 98% in series [3] (male C57 mice, i.g. 10 mg/kg versus i.v. 2.5 mg/kg). Besides, the Kp in series [2] (rat, brain/plasma, po, rats, i.g. (10 mg/kg), read-out: Brain/plasma ratio) came out at 0.497; in series [3] (mouse, brain/plasma, po, mice, i.g. (10 mg/kg), read-out: Brain/plasma ratio), 0.581. Also, the “Brain tissue AUC0-t” value in series [2] (rats, i.g. (10 mg/kg)) was 22917 ng·h/g; in series [3] (mice, i.g. (10 mg/kg)), 5618 ng·h/g. Further, at M4 receptor, the pEC50 is over 7.00.

What is called Cmax is the highest concentration seen after dosing. By clearance is commonly meant a measure of how efficiently the substance is removed, as volume per time. A lower clearance goes with a low capacity for elimination. A word on the half-life: it is how long it takes for the measured level to halve. Higher therefore signals slow decline. Usually pEC50 stands for the negative decadic logarithm of the EC50, by convention in mol/L.
